This note sets out measurements from US20180022780A1, “STABILIZATION ADRENOMEDULLIN DERIVATIVES AND USE THEREOF” (priority 2014, published 2018).

The target in test [1] is T1, human adrenomedullin-receptor (Homo sapiens, UniProt O60895+Q16602).
T1 construct: expressed in transfected cells; host or cells: CHO (Chinese hamster ovary) recombinant reporter cell line with aequorin
Briefly: Tests on a recombinant adrenomedullin-receptor reporter cell (CHO, aequorin luminescence). The class given is cell-based. The following applies: Table 1, CHO cell line carrying the human adrenomedullin-receptor. The procedure:
Activation of the receptor by ligands was measured by aequorin luminescence. Construction of the cell line and measurement procedure has been described in detail [Wunder F., Rebmann A., Geerts A, and Kalthof B., Mol Pharmacol, 73, 1235-1243 (2008)]. In brief: Cells were seeded on opaque 384-well microtiter plates at a density of 4000 cells/well and were grown for 24 h. After removal of culture medium, cells were loaded for 3 h with 0.6 μg/ml coelenterazine in Ca^2+-free Tyrode solution (130 mM sodium chloride, 5 mM potassium chloride, 20 mM HEPES (4-(2-hydroxyethyl)-1-piperazineethanesulfonic acid), 1 mM magnesium chloride, and 4.8 mM sodium hydrogen carbonate, pH 7.4) supplemented with 0.2 mM 3-Isobutyl-1-methylxanthine (IBMX) in a cell culture incubator. Examples were added for 6 min in calcium^2+-free Tyrode solution containing 0.1% bovine serum albumin. Immediately before adding calcium^2+ to a final concentration of 3 mM measurement of the aequorin luminescence was started by use of a suitable luminometer. Luminescence was measured for 60 s. In a typical experiment compounds were tested in a concentration range of 1×10^−13 to 3×10^−6 M.

In test [2] the target is T2, CLR fused to EYFP and RAMP2 fused to ECFP (Homo sapiens, UniProt O60895+Q16602).
T2 construct: EYFP; ECFP; expressed in transfected cells; host or cells: HEK-293 cells, transient co-transfection
T2 sequence (Q16602 23-461): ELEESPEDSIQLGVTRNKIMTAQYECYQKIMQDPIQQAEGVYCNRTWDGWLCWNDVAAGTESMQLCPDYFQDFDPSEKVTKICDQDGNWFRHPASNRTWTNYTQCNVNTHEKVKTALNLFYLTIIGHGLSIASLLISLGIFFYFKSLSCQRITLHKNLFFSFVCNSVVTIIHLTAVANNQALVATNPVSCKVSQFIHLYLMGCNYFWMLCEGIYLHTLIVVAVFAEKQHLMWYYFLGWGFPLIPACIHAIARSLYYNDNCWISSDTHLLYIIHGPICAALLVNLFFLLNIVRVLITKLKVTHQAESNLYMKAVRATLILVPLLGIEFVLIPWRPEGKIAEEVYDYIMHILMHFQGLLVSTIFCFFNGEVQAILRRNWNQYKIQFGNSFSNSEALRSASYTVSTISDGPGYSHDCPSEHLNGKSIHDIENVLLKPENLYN
T2 sequence (O60895 43-175): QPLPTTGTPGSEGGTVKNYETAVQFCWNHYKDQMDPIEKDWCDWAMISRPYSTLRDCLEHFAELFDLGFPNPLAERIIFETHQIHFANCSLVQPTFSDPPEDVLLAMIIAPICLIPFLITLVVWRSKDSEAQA
Put plainly: cAMP assay (CRE luciferase reporter, HEK-293 cells transiently co-transfected with CLR and RAMP2). As to conditions: Table 2, cAMP assay; HEK-293, CLR/RAMP2, CRE luciferase, 3 h stimulation, normalized to [G^14]ADM(14-52). Format: cell-based. The gist of the method: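 HEK-293 cells transiently co-transfected with CLR-EYFP, RAMP2-ECFP and a CRE-luc2P luciferase reporter were stimulated with ligands (eight concentrations, triplicate) for 3 h at 37 °C. Luminescence was corrected to 5 µM forskolin, normalized to [G^14]ADM(14-52) standard, and fitted by non-linear regression to dose-response curves.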

For orientation: pEC50 means −log10 of the EC50, conventionally taken in molar units.

pEC50: −log10 of the molar value. Bridge positions count the residues as written; N and C are the ends. Square brackets hold non-standard residues; d marks the D form. Peptide text beside a SMILES is read from it. Dap = NC[C@H](N)C(=O)O

T1 sequence (Q16602 23-461): as the sequence (Q16602 23-461) above
T1 sequence (O60895 43-175): as the sequence (O60895 43-175) above

On to `CC[C@H](C)[C@H](NC(=O)[C@H](CCC(N)=O)NC(=O)[C@H](Cc1c[nH]cn1)NC(=O)[C@H](C)NC(=O)[C@H](CC(C)C)NC(=O)[C@H](CCCCN)NC(=O)[C@H](CCC(N)=O)NC(=O)[C@@H](NC(=O)[C@@H](NC(=O)[C@@H]1CNC(=O)C[C@H](NC(=O)CNC(=O)CN)C(=O)N[C@@H](CCCNC(=N)N)C(=O)N[C@@H](Cc2ccccc2)C(=O)NCC(=O)N[C@@H]([C@@H](C)O)C(=O)N1)[C@@H](C)O)C(C)C)C(=O)N[C@@H](Cc1ccc(O)cc1)C(=O)N[C@@H](CCC(N)=O)C(=O)N[C@@H](Cc1ccccc1)C(=O)N[C@H](C(=O)N[C@@H](CC(=O)O)C(=O)N[C@@H](CCCCN)C(=O)N[C@@H](CC(=O)O)C(=O)N[C@@H](CCCCN)C(=O)N[C@@H](CC(=O)O)C(=O)N[C@@H](CC(N)=O)C(=O)N[C@H](C(=O)N[C@@H](C)C(=O)N1CCC[C@H]1C(=O)N[C@@H](CCCNC(=N)N)C(=O)N[C@@H](CO)C(=O)N[C@@H](CCCCN)C(=O)N[C@H](C(=O)N[C@@H](CO)C(=O)N1CCC[C@H]1C(=O)N[C@@H](CCC(N)=O)C(=O)NCC(=O)N[C@@H](Cc1ccc(O)cc1)C(N)=O)[C@@H](C)CC)C(C)C)[C@@H](C)O` [Example 26, ((3S,6S,12S,15S,18S)-18-(2-(2-aminoacetamido)acetamido)-12-benzyl-15-(3-guanidinopropyl)-6-((R)-1-hydroxyethyl)-5,8,11,14,17,20-hexaoxo-1,4,7,10,13,16-hexaazacycloicosane-3-carbonyl)-L-threonyl-ADM(22-52)] (H-GGDRFGT[Dap]TVQKLAHQIYQFTDKDKDNVAPRSKISPQGY-NH2; lactam 3-8), for which the pEC50 was 7.49 in test [1] and < 6.00 in test [2].

Take `CC[C@H](C)[C@H](NC(=O)[C@H](CCC(N)=O)NC(=O)[C@H](Cc1c[nH]cn1)NC(=O)[C@H](C)NC(=O)[C@H](CC(C)C)NC(=O)[C@H](CCCCN)NC(=O)[C@H](CCC(N)=O)NC(=O)[C@@H](NC(=O)[C@@H](NC(=O)[C@@H]1CCC(=O)NCCCC[C@H](NC(=O)CNC(=O)CN)C(=O)N[C@@H](CCCNC(=N)N)C(=O)N[C@@H](Cc2ccccc2)C(=O)NCC(=O)N[C@@H]([C@@H](C)O)C(=O)N1)[C@@H](C)O)C(C)C)C(=O)N[C@@H](Cc1ccc(O)cc1)C(=O)N[C@@H](CCC(N)=O)C(=O)N[C@@H](Cc1ccccc1)C(=O)N[C@H](C(=O)N[C@@H](CC(=O)O)C(=O)N[C@@H](CCCCN)C(=O)N[C@@H](CC(=O)O)C(=O)N[C@@H](CCCCN)C(=O)N[C@@H](CC(=O)O)C(=O)N[C@@H](CC(N)=O)C(=O)N[C@H](C(=O)N[C@@H](C)C(=O)N1CCC[C@H]1C(=O)N[C@@H](CCCNC(=N)N)C(=O)N[C@@H](CO)C(=O)N[C@@H](CCCCN)C(=O)N[C@H](C(=O)N[C@@H](CO)C(=O)N1CCC[C@H]1C(=O)N[C@@H](CCC(N)=O)C(=O)NCC(=O)N[C@@H](Cc1ccc(O)cc1)C(N)=O)[C@@H](C)CC)C(C)C)[C@@H](C)O` [Example 2, ((2S,5S,11S,14S,23S)-23-(2-(2-aminoacetamido)acetamido)-5-benzyl-2-(3-guanidinopropyl)-11-((R)-1-hydroxyethyl)-3,6,9,12,17,24-hexaoxo-1,4,7,10,13,18-hexaazacyclotetracosane-14-carbonyl)-L-threonyl-ADM(22-52)] (H-GGKRFGTETVQKLAHQIYQFTDKDKDNVAPRSKISPQGY-NH2; lactam 3-8): the pEC50 in test [1] and in test [2] was < 6.00 throughout.

`CC[C@H](C)[C@H](NC(=O)[C@H](CCC(N)=O)NC(=O)[C@H](Cc1c[nH]cn1)NC(=O)[C@H](C)NC(=O)[C@H](CC(C)C)NC(=O)[C@H](CCCCN)NC(=O)[C@H](CCC(N)=O)NC(=O)[C@@H](NC(=O)[C@@H](NC(=O)[C@@H]1CCCCNC(=O)C[C@H](NC(=O)CNC(=O)CN)C(=O)N[C@@H](CCCNC(=N)N)C(=O)N[C@@H](Cc2ccccc2)C(=O)NCC(=O)N[C@@H]([C@@H](C)O)C(=O)N1)[C@@H](C)O)C(C)C)C(=O)N[C@@H](Cc1ccc(O)cc1)C(=O)N[C@@H](CCC(N)=O)C(=O)N[C@@H](Cc1ccccc1)C(=O)N[C@H](C(=O)N[C@@H](CC(=O)O)C(=O)N[C@@H](CCCCN)C(=O)N[C@@H](CC(=O)O)C(=O)N[C@@H](CCCCN)C(=O)N[C@@H](CC(=O)O)C(=O)N[C@@H](CC(N)=O)C(=O)N[C@H](C(=O)N[C@@H](C)C(=O)N1CCC[C@H]1C(=O)N[C@@H](CCCNC(=N)N)C(=O)N[C@@H](CO)C(=O)N[C@@H](CCCCN)C(=O)N[C@H](C(=O)N[C@@H](CO)C(=O)N1CCC[C@H]1C(=O)N[C@@H](CCC(N)=O)C(=O)NCC(=O)N[C@@H](Cc1ccc(O)cc1)C(N)=O)[C@@H](C)CC)C(C)C)[C@@H](C)O` [Example 22, ((3S,9S,12S,15S,23S)-15-(2-(2-aminoacetamido)acetamido)-9-benzyl-12-(3-guanidinopropyl)-3-((R)-1-hydroxyethyl)-2,5,8,11,14,17-hexaoxo-1,4,7,10,13,18-hexaazacyclotricosane-23-carbonyl)-L-threonyl-ADM(22-52)] (H-GGDRFGTKTVQKLAHQIYQFTDKDKDNVAPRSKISPQGY-NH2; lactam 3-8): the pEC50 in test [1] is 7.82; in test [2], 8.64.

Consider `CC[C@H](C)[C@H](NC(=O)[C@H](CCC(N)=O)NC(=O)[C@H](Cc1c[nH]cn1)NC(=O)[C@H](C)NC(=O)[C@H](CC(C)C)NC(=O)[C@H](CCCCN)NC(=O)[C@H](CCC(N)=O)NC(=O)[C@@H](NC(=O)[C@@H](NC(=O)[C@@H]1CC(=O)NCCCC[C@H](NC(=O)CNC(=O)CN)C(=O)N[C@@H](CCCNC(=N)N)C(=O)N[C@@H](Cc2ccccc2)C(=O)NCC(=O)N[C@@H]([C@@H](C)O)C(=O)N1)[C@@H](C)O)C(C)C)C(=O)N[C@@H](Cc1ccc(O)cc1)C(=O)N[C@@H](CCC(N)=O)C(=O)N[C@@H](Cc1ccccc1)C(=O)N[C@H](C(=O)N[C@@H](CC(=O)O)C(=O)N[C@@H](CCCCN)C(=O)N[C@@H](CC(=O)O)C(=O)N[C@@H](CCCCN)C(=O)N[C@@H](CC(=O)O)C(=O)N[C@@H](CC(N)=O)C(=O)N[C@H](C(=O)N[C@@H](C)C(=O)N1CCC[C@H]1C(=O)N[C@@H](CCCNC(=N)N)C(=O)N[C@@H](CO)C(=O)N[C@@H](CCCCN)C(=O)N[C@H](C(=O)N[C@@H](CO)C(=O)N1CCC[C@H]1C(=O)N[C@@H](CCC(N)=O)C(=O)NCC(=O)N[C@@H](Cc1ccc(O)cc1)C(N)=O)[C@@H](C)CC)C(C)C)[C@@H](C)O` [Example 21, ((2S,5S,11S,14S,22S)-22-(2-(2-aminoacetamido)acetamido)-5-benzyl-2-(3-guanidinopropyl)-11-((R)-1-hydroxyethyl)-3,6,9,12,16,23-hexaoxo-1,4,7,10,13,17-hexaazacyclotricosane-14-carbonyl)-L-threonyl-ADM(22-52)] (H-GGKRFGTDTVQKLAHQIYQFTDKDKDNVAPRSKISPQGY-NH2; lactam 3-8), for which the negative logarithm of the EC50 (pEC50) in test [1] and in test [2] was < 6.00 throughout.
